Data taken from patent publication US9062033B2, “Chemical compounds” (Rottapharm Biotech S.r.l., priority 2011, dated 2015).

Experiments:
human OX1 receptors = target: T1, human OX1 receptors (Homo sapiens, UniProt O43613); assay: Antagonistic activity against human OX1 receptor, [Ca2+]i fluorimetry (Fluo-4NW) in transfected CHO cells activated with orexin-A; type: cell-based; settings: CHO cells transfected with human recombinant OX1; orexin-A 3 nM; pKb = co-logarithm of apparent dissociation constant, modified Cheng Prusoff
T1 construct: expressed in transfected cells; host or cells: CHO cells
T1 sequence (O43613 1-425): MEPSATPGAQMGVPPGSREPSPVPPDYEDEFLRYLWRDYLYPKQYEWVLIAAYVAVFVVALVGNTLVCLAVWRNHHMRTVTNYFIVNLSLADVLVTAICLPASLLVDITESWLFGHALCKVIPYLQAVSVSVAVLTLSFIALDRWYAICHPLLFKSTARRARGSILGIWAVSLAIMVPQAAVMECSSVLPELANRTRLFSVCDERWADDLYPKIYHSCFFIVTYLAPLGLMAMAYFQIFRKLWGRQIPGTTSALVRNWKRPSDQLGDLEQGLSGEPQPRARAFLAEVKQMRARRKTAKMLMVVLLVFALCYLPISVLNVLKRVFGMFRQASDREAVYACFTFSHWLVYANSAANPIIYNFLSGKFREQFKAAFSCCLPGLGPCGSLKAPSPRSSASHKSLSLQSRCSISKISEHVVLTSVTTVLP
Method: (§1) In a typical experiment, the antagonistic activity against human OX1 and OX2 receptors is determined by using CHO e HEK-293 cells transfected with human recombinant OX1 and OX2 receptors respectively, seeded at density of 2 and 3×10^4 cells/well respectively in a 96 fluorimetry well plate. Thus the plate was loaded with the calcium dye (Fluo-4NW/probenecid in HBSS, Hepes 20 mM, pH 7.4; Invitrogen) at 37° C. for 60 min. Afterward the temperature was equilibrated at 22° C. for 15 min and the [Ca2+]i measured directly on the plate by using a fluorescent plate reader (CellLux Perkin Elmer).
(§2) Invention compounds were dissolved in DMSO, diluted in HBSS (DMSO, 0.3% final) and added to the wells. After 5 min CHO cells were activated with orexin-A, 3 nM while HEK-293 cells were activated with orexin-B, 10 nM.
(§3) The compounds, dissolved in DMSO and diluted in the medium (DMSO, 0.3% final), have been analysed in the 1 nM-1 μM concentration range (every concentration in duplicate). The antagonistic activity has been expressed as pKb (co-logarithm of the apparent dissociation constant calculated by using the modified Cheng Prusoff equation).
(§4) The results are expressed as percent of control specific […] response ((measured specific response/control specific agonist response)×100) obtained in the presence of the test compounds.
(§5) The IC50 values (concentration causing a half-maximal inhibition of the control specific agonist response) were determinated by non-linear regression analysis of the concentration curves generated with mean replicate values using hill equation curve fitting. The IC50 values are obtained by the arithmetical mean of at least two experiments. Compounds of the following example tested according to this example gave pKbs as follows: […]

human OX2 receptors = target: T2, human OX2 receptors (Homo sapiens, UniProt O43614); assay: Antagonistic activity against human OX2 receptor, [Ca2+]i fluorimetry (Fluo-4NW) in transfected HEK-293 cells activated with orexin-B; type: cell-based; settings: HEK-293 cells transfected with human recombinant OX2; orexin-B 10 nM; pKb = co-logarithm of apparent dissociation constant, modified Cheng Prusoff
T2 construct: expressed in transfected cells; host or cells: HEK-293 cells
T2 sequence (O43614 1-444): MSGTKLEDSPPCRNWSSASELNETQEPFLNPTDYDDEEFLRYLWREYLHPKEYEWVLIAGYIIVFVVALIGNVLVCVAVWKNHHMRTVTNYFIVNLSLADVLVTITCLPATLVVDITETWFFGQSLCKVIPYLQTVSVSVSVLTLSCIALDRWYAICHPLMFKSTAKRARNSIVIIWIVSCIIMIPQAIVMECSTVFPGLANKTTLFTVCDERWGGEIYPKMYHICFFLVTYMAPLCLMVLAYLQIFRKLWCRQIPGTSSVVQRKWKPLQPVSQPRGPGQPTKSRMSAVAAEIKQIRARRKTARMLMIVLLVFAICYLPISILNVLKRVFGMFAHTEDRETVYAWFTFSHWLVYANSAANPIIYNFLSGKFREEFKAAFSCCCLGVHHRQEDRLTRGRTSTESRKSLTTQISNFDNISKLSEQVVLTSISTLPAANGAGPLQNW
Method: as §1, §2, §3, §4, §5

Cc1ccc(-n2ccc(C)n2)c(C(=O)N2CC3(CC3)C[C@H]2CNc2ccc(C(F)(F)F)cn2)n1 [Compound 3j, (S)-(6-methyl-3-(3-methyl-1H-pyrazol-1-yl)pyridin-2-yl)(6-(((5-(trifluoromethyl)pyridin-2-yl)amino)-methyl)-5-azaspiro[2.4]heptan-5-yl)methanone]
Kb (human OX1 receptors): 1.26 nM
Kb (human OX2 receptors): 15.8 nM

Cc1ccc(OCc2ccccc2)c(C(=O)N2CC3(CC3)C[C@H]2CNc2ccc(C(F)(F)F)cn2)n1 [Compound 3k, (S)-(3-(benzyloxy)-6-methylpyridin-2-yl)(6-(((5-(trifluoromethyl)pyridin-2-yl)amino)methyl)-5-azaspiro[2.4]heptan-5-yl)methanone]
Kb (human OX1 receptors): 2.51 nM
Kb (human OX2 receptors): 2.51 nM

Cc1ccc(OCc2cccc(F)c2F)c(C(=O)N2CC3(CC3)C[C@H]2CNc2ccc(C(F)(F)F)cn2)n1 [Compound 3l, (S)-(3-((2,3-difluorobenzyl)oxy)-6-methylpyridin-2-yl)(6-(((5-(trifluoromethyl)pyridin-2-yl)amino)methyl)-5-azaspiro[2.4]heptan-5-yl)methanone]
Kb (human OX1 receptors): 25.1 nM
Kb (human OX2 receptors): 7.94 nM

Cc1ccc(OCc2ccc(F)cc2)c(C(=O)N2CC3(CC3)C[C@H]2CNc2ccc(C(F)(F)F)cn2)n1 [Compound 3m, (S)-(3((4-fluorobenzyl)oxy)-6-methylpyridin-2-yl)(6-(((5-(trifluoromethyl)pyridin-2-yl)amino)methyl)-5-azaspiro[2.4]heptan-5-yl)methanone]
Kb (human OX1 receptors): 39.8 nM
Kb (human OX2 receptors): 15.8 nM

Cc1ccc(OCc2ccc(F)cc2F)c(C(=O)N2CC3(CC3)C[C@H]2CNc2ccc(C(F)(F)F)cn2)n1 [Compound 3n, (S)-(3-((2,4-difluorobenzyl)oxy)-6-methylpyridin-2-yl)(6-(((5-(trifluoromethyl)pyridin-2-yl)amino)methyl)-5-azaspiro[2.4]heptan-5-yl)methanone]
Kb (human OX1 receptors): 79.4 nM
Kb (human OX2 receptors): 79.4 nM

Cc1ccc(OCc2cc(F)cc(F)c2)c(C(=O)N2CC3(CC3)C[C@H]2CNc2ccc(C(F)(F)F)cn2)n1 [Compound 3o, (S)-(3-((3,5-difluorobenzyl)oxy)-6-methylpyridin-2-yl)(6-(((5-(trifluoromethyl)pyridin-2-yl)amino)methyl)-5-azaspiro[2.4]heptan-5-yl)methanone]
Kb (human OX1 receptors): 6.31 nM
Kb (human OX2 receptors): 5.01 nM

Cc1ccc(-c2ncccn2)c(C(=O)N2CC3(CC3)C[C@H]2CNc2nccc3ncccc23)n1 [Compound 3p, (S)-(6-(((1,6-naphthyridin-5-yl)amino)methyl)-5-azaspiro[2.4]heptan-5-yl)(6-methyl-3-(pyrimidin-2-yl)pyridin-2-yl)methanone]
Kb (human OX1 receptors): 126 nM
Kb (human OX2 receptors): 25.1 nM

Cc1ccc(-c2nccs2)c(C(=O)N2CC3(CC3)C[C@H]2CNc2ccc(C(F)(F)F)cn2)n1 [Compound 3q, (S)-(6-methyl-3-(thiazol-2-yl)pyridin-2-yl)(6-(((5-(trifluoromethyl)pyridin-2-yl)amino)methyl)-5-azaspiro[2.4]heptan-5-yl)methanone]
Kb (human OX1 receptors): 2.51 nM
Kb (human OX2 receptors): 10 nM

O=C(c1nc(C2CC2)ccc1-c1ccccc1)N1CC2(CC2)C[C@H]1CNc1ccc(C(F)(F)F)cn1 [Compound 3r, (S)-(6-cyclopropyl-3-phenylpyridin-2-yl)(6-(((5-(trifluoromethyl)pyridin-2-yl)amino)methyl)-5-azaspiro[2.4]heptan-5-yl)methanone]
Kb (human OX1 receptors): 2.51 nM
Kb (human OX2 receptors): 12.6 nM

Cc1ccc(-c2ccc(C)nc2C(=O)N2CC3(CC3)C[C@H]2CNc2ccc(C(F)(F)F)cn2)c(F)c1 [Compound E4, (S)-(3-(2-fluoro-4-methylphenyl)-6-methylpyridin-2-yl)(6-(((5-(trifluoromethyl)pyridin-2-yl)amino)methyl)-5-azaspiro[2.4]heptan-5-yl)methanone]
Kb (human OX1 receptors): 39.8 nM
Kb (human OX2 receptors): 31.6 nM

O=C(c1ncccc1-c1ccccc1)N1CC2(CC2)C[C@H]1CNc1ccc(C(F)(F)F)cn1 [Compound E5, (S)-(3-phenylpyridin-2-yl)(6-(((5-(trifluoromethyl)-pyridin-2-yl)amino)methyl)-5-azaspiro[2.4]heptan-5-yl)methanone]
Kb (human OX1 receptors): 10 nM
Kb (human OX2 receptors): 50.1 nM

Cc1ccc(-c2cccnc2)c(C(=O)N2CC3(CC3)C[C@H]2CNc2ccc(C(F)(F)F)cn2)n1 [Compound E6, (S)-(6-methyl-[3,3′-bipyridin]-2-yl)(6-(((5-(trifluoromethyl)pyridin-2-yl)amino)methyl)-5-azaspiro[2.4]heptan-5-yl)methanone]
Kb (human OX1 receptors): 100 nM
Kb (human OX2 receptors): 200 nM

O=C(c1ncccc1-c1ccccn1)N1CC2(CC2)C[C@H]1CNc1ccc(C(F)(F)F)cn1 [Compound E7, (S)-[2,3′-bipyridin]-2′-yl(6-(((5-(trifluoromethyl)pyridin-2-yl)amino)methyl)-5-azaspiro[2.4]heptan-5-yl)methanone]
Kb (human OX1 receptors): 3.98 nM
Kb (human OX2 receptors): 126 nM

Cc1ccc(-c2ccc(C#N)cc2)c(C(=O)N2CC3(CC3)C[C@H]2CNc2ccc(C(F)(F)F)cn2)n1 [Compound E8, (S)-4-(6-methyl-2-(6-(((5-(trifluoromethyl)pyridin-2-yl)amino)methyl)-5-azaspiro[2.4]heptane-5-carbonyl)pyridin-3-yl)benzonitrile]
Kb (human OX1 receptors): 20 nM
Kb (human OX2 receptors): 31.6 nM

Cc1ccc(-c2ncccn2)c(C(=O)N2CC3(CC3)C[C@H]2CNc2nc3ccccc3o2)n1 [Compound E9, (S)-(6-((benzo[d]oxazol-2-ylamino)methyl)-5-azaspiro[2.4]heptan-5-yl)(6-methyl-3-(pyrimidin-2-yl)pyridin-2-yl)methanone]
Kb (human OX1 receptors): 0.631 nM
Kb (human OX2 receptors): 25.1 nM

Cc1ccc(-c2ncccn2)c(C(=O)N2CC3(CC3)C[C@H]2CNc2nc3cc(Cl)ccc3o2)n1 [Compound E10, (S)-(6-(((5-chlorobenzo[d]oxazol-2-yl)amino)methyl)-5-azaspiro[2.4]heptan-5-yl)(6-methyl-3-(pyrimidin-2-yl)pyridin-2-yl)methanone]
Kb (human OX1 receptors): 7.94 nM
Kb (human OX2 receptors): 79.4 nM

Cc1ccc(-c2ccc(F)c(F)c2)c(C(=O)N2CC3(CC3)C[C@H]2CNc2ccc(C(F)(F)F)cn2)n1 [Compound E11, (S)-(3-(3,4-difluorophenyl)-6-methylpyridin-2-yl)(6-(((5-(trifluoromethyl)pyridin-2-yl)amino)methyl)-5-azaspiro[2.4]heptan-5-yl)methanone]
Kb (human OX1 receptors): 12.6 nM
Kb (human OX2 receptors): 20 nM

N#Cc1ccc(-c2ncccn2)c(C(=O)N2CC3(CC3)C[C@H]2CNc2ccc(C(F)(F)F)cn2)c1 [Compound E12, (S)-4-(pyrimidin-2-yl)-3-(6-(((5-(trifluoromethyl)-pyridin-2-yl)amino)methyl)-5-azaspiro[2.4]heptane-5-carbonyl)benzonitrile]
Kb (human OX1 receptors): 10 nM
Kb (human OX2 receptors): 7.94 nM
